Source: US20240165226A1, “COMBINATION TREATMENT OF CD38-EXPRESSING TUMORS” (GENMAB A/S, priority 2006, published 2024)
“Also recorded” adds a separate entry of the source.

Experiments:
Daudi-luc cells [1] = experiment: Binding to Daudi-luc cells by flow cytometry; details: for binding to Daudi-luc cells: in words
Procedure: After harvesting and counting, Daudi-luc cells, CHO cells transfected with CD38 and control CHO cells were resuspended in PBS (1×10^6 cells/ml). Then, cells were put in 96-well V-bottom plates (100 μl/well) and washed twice in PBS-BSA (PBS supplemented with 0.1% BSA and 0.02% Na-azide). Thereafter, 50 μl antibody solution in PBS-BSA was added to the cells (4° C., 30 min). After washing three times in PBS-BSA, 50 μl (1:400 dilution) of rabbit anti-human IgG-FITC in PBS-BSA was added (4° C. in the dark, 30 min). Cells were washed three times and specific binding of CD38-antibodies to CHO-CD38 and Daudi-luc cells was detected by flow cytometry. HuMab-KLH (a human monoclonal antibody against KLH (keyhole limpet haemocyanin) generated by Genmab B.V., Utrecht, The Netherlands by use of the immunization protocols described elsewhere herein) was used as a control. […] No binding to control CHO cells is observed (data not shown).

PBMCs [2] = experiment: Induction of proliferation of PBMC; type: cell-based, human; details: 1.1-30 μg/ml, 3H-thymidine incorporation, 10 donors
Procedure: -003, -005 and -024 were tested in an assay essentially as described in Ausiello et al., Tissue antigens 56, 538-547 (2000). Briefly, PBMCs from healthy donors were cultured at 1×10^5 cells/well in flat bottom 96-well plates in the presence of antibodies (final concentration: 1.1-3.3-10-30 μg/ml) in 200 μl RPMI^++. Stimulation of cells with IL-15 (at 333 ng/ml; Amgen Inc., Thousand Oaks, CA, USA) was used as positive control. After a 4 day incubation at 37° C., 30 μl ^3H-thymidine (16.7 μCi/ml) was added, and culture was continued O/N. ^3H-thymidine incorporation was assessed using a […] (Packard Instruments, Meriden, DT, USA), according to the manufacturer's instructions. Data are shown as the mean cpm (±SEM) of PBMCs obtained from 10 donors.

[3] = system: fresh multiple myeloma tumor cells; experiment: ADCC (51Cr release) of fresh multiple myeloma tumor cells; type: cell-based, human; details: in words
Procedure: (§1) Daudi-luc cells, fresh multiple myeloma tumor cells, fresh Plasma Cell Leukemia tumor cells and JK6L and AMO-1 multiple myeloma cells were collected (5×10^6 cells) in RPMI^++ (RPMI 1640 culture medium supplemented with 10% cosmic calf serum (HyClone, Logan, UT, USA)), to which 100 μCi ^51Cr (Chromium-51; Amersham Biosciences Europe GmbH, Roosendaal, The Netherlands) was added, and the mixture was incubated in a 37° C. water bath for 1 hr. After washing of the cells (twice in PBS, 1500 rpm, 5 min), the cells were resuspended in RPMI^++ and counted by trypan blue exclusion. Cells were brought at concentration of 1×10^5 cells/ml.
(§2) Fresh peripheral blood mononuclear cells (healthy volunteers, UMC Utrecht, Utrecht, The Netherlands) were isolated from 40 ml of heparin blood by Ficoll (Bio Whittaker; lymphocyte separation medium, cat 17-829E) according to the manufacturer's instructions. After resuspension of cells in RPMI^++, cells were counted by trypan blue exclusion and brought at concentration of 1×10^7 cells/ml.
50 μl of ^51Cr-labeled targets cells were pipetted into 96-well plates, and 50 μl of antibody was added, diluted in RPMI^++ (final concentrations 10, 1, 0.1, 0.01 μg/ml). […] After spinning down cells (1500 rpm, 5 min), 100 μl of supernatant was harvested into micronic tubes, and counted in gamma counter. The percentage specific lysis was calculated as follows: […]

PBMCs [4] = experiment: Induction of release of IFN-γ by PBMC; type: cell-based, human; details: 20 μg/ml antibody and 1 μg/ml OKT-3, 9 donors
Procedure: -003, -005 and -024 were tested in an assay as described in Ausiello et al., Tissue antigens 56, 538-547 (2000). Briefly, PBMCs were cultured at 1×10^6 cells/well in 48-well plates in the presence of 20 μg/ml of antibodies and 1 μg/ml OKT-3 (Sanquin, Amsterdam, The Netherlands) in 500 μl RPMI^++. After an O/N incubation at 37° C., supernatant was harvested and stored at −20° C. The IFN-γ concentration was assessed by ELISA (IFN-γ ELISA kit, U-CyTech Biosciences, Utrecht, The Netherlands) according to the manufacturer's instructions. Data are shown mean concentration in pg/ml (±SEM) from 9 donors.

Daudi-luc cells [5] = experiment: ADCC (51Cr release) of Daudi-luc cells; type: cell-based; details: for lysis of Daudi cells by ADCC: in words
Procedure: as §1, §2
50 μl of ^51Cr-labeled targets cells were pipetted into 96-well plates, and 50 μl of antibody was added, diluted in RPMI^++ (final concentrations 10, 1, 0.1, 0.01 μg/ml). Cells were incubated (RT, 15 min), and 50 μl effector cells were added, resulting in an effector to target ratio of 100:1 (for determination of maximal lysis, 100 μl 5% Triton-X100 was added instead of effector cells; for determination of spontaneous lysis, 50 μl target cells and 100 μl RPMI++ were used). Cells were spun down (500 rpm, 5 min), and incubated (37° C., 5% CO2, 4 hr). After spinning down cells (1500 rpm, 5 min), 100 μl of supernatant was harvested into micronic tubes, and counted in gamma counter. The percentage specific lysis was calculated as follows:
(cpm sample−cpm target cells only)/(cpm maximal lysis−cpm target cells only)
wherein cpm is counts per minute.

[6] = system: fresh plasma cell leukemia tumor cells; experiment: ADCC set up II, plasma cell leukemia tumor cells; type: cell-based, human; details: in words
Procedure: Human blood from human volunteers (university Erlangen, Erlangen, Germany) was diluted twice in RPMI 1640 and blood cells were layered on Ficoll (Lymphocyte Separation Medium […], 710 g, RT, 20 min; BioWhittaker, Cambrex Bio Science Verviers, Verviers, Belgium, cat. 17-829E, lot no. 0148 32). Peripheral blood mononuclear cells (MNCs) were collected from the interphase, washed and resuspended in RPMI 1640 culture medium supplemented with 10% FCS, 2 mM L-glutamine, 5 U/ml penicillin, 50 μg/ml streptomycin (all derived from BioWhittaker) to which 25 mM HEPES (BioWhittaker) was added.
Target B-cells (fresh plasma cell leukemia tumor cells, JK6L and AMO-1 B-cell lines, obtained from Dr. T. Valerius, University of Erlangen, Erlangen, Germany) were labeled with 20 μCi ^51Cr (Amersham Biosciences, Uppsala, Sweden) for 2 hours. After extensive washing in RPMI-10, cells were adjusted to 1×10^5 cells/ml. […] After incubation (3 hr, 37° C.), assays were stopped by centrifugation, and 51Cr release from triplicates was measured in counts per minute (cpm) in a scintillation counter. Percentage of cellular cytotoxicity was calculated using the following formula: […]
with maximal ^51Cr release determined by adding perchloric acid (3% final concentration) to target cells, and basal release was measured in the absence of sensitizing antibodies and effector cells.

Row | Molecule | EC50 Daudi-luc (Daudi-luc cells [1]; binding, flow cytometry) | binding to Daudi-luc cells (Daudi-luc cells [1]) | proliferation of PBMCs (PBMCs [2]) | ADCC of fresh multiple myeloma tumor cells [3] | release of IFN-γ (PBMCs [4]) | Maximal lysis (%) (Daudi-luc cells [5]; ADCC, Daudi target cells, n=5) | EC50 Daudi-luc (Daudi-luc cells [5]; ADCC, Table 2 first column, effector to target ratio 100:1) | ADCC performance compared to rituximab (Daudi-luc cells [5]; Daudi-luc cells) | lysis of Daudi cells by ADCC (Daudi-luc cells [5]) | ADCC of plasma cell leukemia primary tumor cells [6]
1 | -005: human monoclonal IgG1 anti-CD38 antibody, VL region SEQ ID No:12 and VH region SEQ ID No:17 | 0.09 µg/mL | bind | do not induce significant proliferation | ADCC is induced | does not induce release of detectable IFN-γ levels | 49.2% | 4.5 ng/mL | slightly better than rituximab | induce lysis by ADCC; also recorded: mediate lysis | induce ADCC
2 | -024: human monoclonal IgG1 anti-CD38 antibody, VL region SEQ ID No:22 and VH region SEQ ID No:27 (antibody, listed as Homo sapiens, V domains shown) VH: EVQLVQSGAEVKKPGESLKISCKGSGYSFSNYWIGWVRQMPGKGLEWMGIIYPHDSDARYSPSFQGQVTFSADKSISTAYLQWSSLKASDTAMYYCARHVGWGSRYWYFDLWGRGTLVTVSS VL: EIVLTQSPATLSLSPGERATLSCRASQSVSSYLAWYQQKPGQAPGLLIYDASNRASGIPARFSGSGSGTDFTLTISSLEPEDFAVYYCQQRSNWPLTFGGGTKVEIK | – | bind | did not induce significant proliferation | ADCC is induced | did not induce release of significant IFN-γ levels | – | – | – | induce lysis by ADCC | induce ADCC
